Test results from patent US20230165846A1, “HETEROCYCLIC GLP-1 AGONISTS” (Gasherbrum Bio, Inc., priority 2020, published 2023).

Legend:
[1] = target: T1, GLP-1 Receptor (Homo sapiens, UniProt P43220); assay: GLP-1R agonist cAMP stimulation assay, Method 1 (DiscoverX CHO-K1, enzyme fragment complementation); type: cell-based; details: CHO-K1 cell line (DiscoverX) stably expressing GLP-1 Receptor; incubation 30 or 60 min at 37° C.; geometric mean where n>=2; read-out: GLP1R cAMP Stimulation DR: EC50 (nM) Method 1
Method: Activation of GLP-1 receptor is known to stimulate cyclic AMP (cAMP) production in cells which indicates primary coupling to the Gas subunit of the G protein heterotrimeric complex.
Method 1: To optimize functional activity directed toward Gas coupling, a CHO—K1 cell line developed by DiscoverX stably expressing the GLP-1 Receptor was used. Cells expressing GLP-1 receptor were plated in a 384-well microtiter plates and incubated overnight at 37° C. with 5% CO2 to allow the cells to attach and grow. Media was then aspirated from the cells and replaced with 15 uL 2:1 Hanks Balanced Salt Solution (HBSS)/10mM Hepes : cAMP XS+ Ab reagent. Five microliters (5 uL) of previously generated compound sample stocks at 4x final concentration in assay buffer were then added to the cells and allowed to incubate at 37° C. for 30 or 60 minutes.
After incubation the assay signal was generated using enzyme fragment complementation (EFC). In EFC, the enzyme B-galactosidase is split into two complementary portions (EA and ED). The fragment ED is fused to cAMP and in the assay format competes with endogenous cAMP for binding to a cAMP specific antibody. Activated β—Gal is formed when exogenous EA fragment binds to free ED-cAMP (not bound to cAMP specific antibody). Activated enzyme levels are detected through conversion of β-gal chemiluminescent substrate which generates a detectable luminescence signal and read on standard microtiter plate.
The methodology for detection of cAMP using EFC requires incubation with 20uL of cAMP XS+ ED/CL lysis cocktail for one hour followed by incubation with 20 uL cAMP XS+ EA reagent for three hours at room temperature. Microplates were read following signal generation with a PerkinElmer Envision instrument utilizing chemiluminescent signal detection. Compound activity was analyzed using CBIS data analysis suite (ChemInnovation, CA). Percentage activity was calculated using the following formula:
(§1) %Activity = 100% x (mean RLU of test sample - mean RLU of vehicle control) / (mean RLU of MAX control - mean RLU of vehicle control))
(§2) This is done to account for the lognormal distribution of multiple estimates of EC50 values. In practice geometric mean is calculated by first generating log values of EC50, averaging replicates and then calculating the antilog of the average.

[2] = target: T1, GLP-1 Receptor; assay: GLP-1R agonist cAMP stimulation assay, Method 2 (HDB HEK293/GLP1R/CRE-LUC, Cisbio cAMP dynamic 2 kit); type: cell-based; details: HEK293/GLP1R/CRE-LUC cells (HD Biosciences); 30 min at 37° C.; 0.5 mM IBMX, 0.1% BSA; geometric mean where n>=2; read-out: GLP1R cAMP Stimulation DR: EC50 (nM) Method 2 (HDB)
Method: Method 2: Activation of GLP-1 receptor is known to stimulate cyclic AMP (cAMP) production in cells which indicates primary coupling to the Gas subunit of the G protein heterotrimeric complex.
To optimize functional activity directed toward Gas coupling, a HEK293/CRE-Luc cell line developed by HDB stably expressing the GLP-1 Receptor was used. 200× concentration of compound working solutions were prepared (Agilent Technologies Bravo) with ½log serial dilution in 384-well Echo LDV plate (Labcyte, Cat# LP-0200). […] Seal the plate and incubate at 37° C. with 5% CO2 for 30 min.
After incubation the cAMP assay signal was generated using cAMP dynamic 2 Kit (Cisbio). 5 µL cAMP-d2 working solution was added to each well, followed with 5 µL Anti-cAMP antibody-cryptate working solution added to each well using ThermoFisher Multidrop Combi. Incubate at room temperature for 1 hour protected from light.
as §1, §2

T1 sequence (P43220 24-463): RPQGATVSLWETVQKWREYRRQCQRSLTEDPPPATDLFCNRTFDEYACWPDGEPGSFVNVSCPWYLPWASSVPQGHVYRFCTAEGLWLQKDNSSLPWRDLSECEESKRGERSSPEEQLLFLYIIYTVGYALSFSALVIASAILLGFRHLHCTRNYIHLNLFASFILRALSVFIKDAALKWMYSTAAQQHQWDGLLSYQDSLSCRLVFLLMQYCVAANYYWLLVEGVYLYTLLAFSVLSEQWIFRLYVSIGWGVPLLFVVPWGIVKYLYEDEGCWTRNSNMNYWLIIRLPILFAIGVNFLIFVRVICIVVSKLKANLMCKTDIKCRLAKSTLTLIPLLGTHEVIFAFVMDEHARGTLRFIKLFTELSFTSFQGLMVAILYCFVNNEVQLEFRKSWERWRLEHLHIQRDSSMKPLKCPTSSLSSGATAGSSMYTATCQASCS

## N#Cc1ccc(COc2cccc(C3=CCC(Cc4nc5ccc(C(=O)O)nc5n4C[C@@H]4CCO4)CC3)n2)c(F)c1 (stereo partly drawn) [Compound 101a, 2-((4-(6-((4-cyano-2-fluorobenzyl)oxy)pyridin-2-yl)cyclohex-3-en-1-yl)methyl)-3-(((S)-oxetan-2-yl)methyl)-3H-imidazo[4,5-b]pyridine-5-carboxylic acid]
[1]
  EC50: < 0.051 nM
[2]
  EC50: 0.019 nM

## O=C(O)c1ccc2nc(Cc3ccc(-c4nccc(OCc5ccc(Cl)cc5F)n4)cc3)n(C[C@@H]3CCO3)c2n1 [Compound 101aw, (S)-2-(4-(4-((4-chloro-2-fluorobenzyl)oxy)pyrimidin-2-yl)benzyl)-3-(oxetan-2-ylmethyl)-3H-imidazo[4,5-b]pyridine-5-carboxylic acid]
[1]
  EC50: 0.069 nM
[2]
  EC50: 0.097 nM

## O=C(O)c1ccc2nc(CC3CC=C(c4cccc(OCc5ccc(Cl)cc5F)n4)CC3)n(C[C@@H]3CCO3)c2n1 (stereo partly drawn) [Compound 102a, 2-((4-(6-((4-chloro-2-fluorobenzyl)oxy)pyridin-2-yl)cyclohex-3-en-1-yl)methyl)-3-(((S)-oxetan-2-yl)methyl)-3H-imidazo[4,5-b]pyridine-5-carboxylic acid]
[1]
  EC50: 0.016 nM
[2]
  EC50: 0.0096 nM

## O=C(O)c1ccc2nc(Cc3ccc(-c4nccc(OCc5ccccc5)n4)cc3)n(C[C@@H]3CCO3)c2n1 [Compound 102aw, 2-[[4-(4-benzyloxypyrimidin-2-yl)phenyl]methyl]-3-[[(2S)-oxetan-2-yl]methyl]imidazo[4,5-b]pyridine-5-carboxylic acid]
[1]
  EC50: 2.2 nM
[2]
  EC50: 1.9 nM

## O=C(O)c1ccc2nc(CC3CC=C(c4nccc(OCc5ccc(Cl)cc5F)n4)CC3)n(C[C@@H]3CCO3)c2n1 (stereo partly drawn) [Compound 103a, 2-((4-(4-((4-chloro-2-fluorobenzyl)oxy)pyrimidin-2-yl)cyclohex-3-en-1-yl)methyl)-3-(((S)-oxetan-2-yl)methyl)-3H-imidazo[4,5-b]pyridine-5-carboxylic acid]
[1]
  EC50: 0.073 nM
[2]
  EC50: 0.095 nM

## O=C(O)c1ccc2nc(Cn3ccc(-c4cccc(OCc5ccc(Cl)cc5F)n4)cc3=O)n(C[C@@H]3CCO3)c2n1 [Compound 103aw, (S)-2-((6-((4-chloro-2-fluorobenzyl)oxy)-2′-oxo-[2,4′-bipyridin]-1′(2′H)-yl)methyl)-3-(oxetan-2-ylmethyl)-3H-imidazo[4,5-b]pyridine-5-carboxylic acid]
[1]
  EC50: 0.38 nM
[2]
  EC50: 0.89 nM

## O=C(O)c1ccc2nc(CC3CC=C(c4ccnc(OCc5ccc(Cl)cc5F)n4)CC3)n(C[C@@H]3CCO3)c2n1 (stereo partly drawn) [Compound 104a, 2-((4-(2-((4-chloro-2-fluorobenzyl)oxy)pyrimidin-4-yl)cyclohex-3-en-1-yl)methyl)-3-(((S)-oxetan-2-yl)methyl)-3H-imidazo[4,5-b]pyridine-5-carboxylic acid]
[1]
  EC50: 0.114 nM
[2]
  EC50: 0.12 nM

## Cc1cn(Cc2nc3ccc(C(=O)O)nc3n2C[C@@H]2CCO2)c(=O)cc1-c1cccc(OCc2ccc(Cl)cc2F)n1 [Compound 104aw, (S)-2-((6-((4-chloro-2-fluorobenzyl)oxy)-5′-methyl-2′-oxo-[2,4′-bipyridin]-1′(2′H)-yl)methyl)-3-(oxetan-2-ylmethyl)-3H-imidazo[4,5-b]pyridine-5-carboxylic acid]
[1]
  EC50: 0.17 nM
[2]
  EC50: 0.13 nM

## N#Cc1ccc(COc2nccc(C3=CCC(Cc4nc5ccc(C(=O)O)nc5n4C[C@@H]4CCO4)CC3)n2)c(F)c1 (stereo partly drawn) [Compound 105a, 2-((4-(2-((4-cyano-2-fluorobenzyl)oxy)pyrimidin-4-yl)cyclohex-3-en-1-yl)methyl)-3-(((S)-oxetan-2-yl)methyl)-3H-imidazo[4,5-b]pyridine-5-carboxylic acid]
[1]
  EC50: 0.12 nM
[2]
  EC50: 0.089 nM

## Cc1c(-c2cccc(OCc3ccc(Cl)cc3F)n2)ccn(Cc2nc3ccc(C(=O)O)nc3n2C[C@@H]2CCO2)c1=O [Compound 105aw, (S)-2-((6-((4-chloro-2-fluorobenzyl)oxy)-3′-methyl-2′-oxo-[2,4′-bipyridin]-1′(2′H)-yl)methyl)-3-(oxetan-2-ylmethyl)-3H-imidazo[4,5-b]pyridine-5-carboxylic acid]
[1]
  EC50: 11 nM
[2]
  EC50: 7.1 nM
